For assay [1], the target named is T1, HCV 1a NS3-NS4A heterodimer protein (Hepatitis C virus genotype 1a, UniProt P27958).
T1 construct: Co-purification of mature NS3 and NS4A protein complex was verified by Western blot analysis; made in house; host or cells: Sf21 insect cells, recombinant baculovirus (pFastBac HTa)
The experiment in a line: In vitro HCV NS3 protease assay (fluorogenic depsipeptide), genotype 1a. The class given is biochemical.
Description: For production of the HCV genotype 1b NS3-NS4A heterodimer protein, a full-length HCV cDNA was cloned by RT-PCR using RNA extracted from the serum of an HCV genotype 1b infected individual (provided by Dr. Bernard Willems, Hôpital St-Luc, Montréal, Canada). […] For HCV genotype 1a, the DNA encoding NS3-NS4A heterodimer protein was PCR-amplified (forward primer: 5′[sequence]3′ (SEQ ID No.3); reverse primer: 5′[sequence]3′ (SEQ ID No.4)) from the HCV genotype la strain H77 (provided by ViroPharma Inc., Exton, Pa., U.S.) and subcloned as described above. The cloning into the pFastBac™ HTa baculovirus expression vector generated a recombinant fusion protein containing an additional N-terminal 28 residues that comprised a hexahistidine tag and a rTEV protease cleavage site. The Bac-to-Bac™ baculovirus expression system (Gibco/BRL) was used to produce the recombinant baculovirus for protein expression.
His-tagged NS3-NS4A heterodimer protease was expressed by infecting Sf21 insect cells (Invitrogen) at a density of 10^6 cells/mL with the recombinant baculovirus at a multiplicity of infection of 0.1-0.2 at 27° C. The infected culture was harvested 48 to 64 h later by centrifugation at 4° C. The cell pellet was homogenized in 50 mM sodium phosphate, pH 7.5, 40% glycerol (w/v), 2 mM β-mercaptoethanol. His-NS3-NS4A heterodimer protease was then extracted from the cell lysate with 1.5% NP-40, 0.5% Triton X-100, 0.5M NaCl, and a DNase treatment. […]

Assay [2] deals with T2, HCV 2b NS3-NS4A heterodimer protein (UniProt P26661).
T2 construct: fused on or other part: 28 extra N-terminal residues with a hexahistidine tag and an rTEV cleavage site
T2 sequence (P26661 1031-1661): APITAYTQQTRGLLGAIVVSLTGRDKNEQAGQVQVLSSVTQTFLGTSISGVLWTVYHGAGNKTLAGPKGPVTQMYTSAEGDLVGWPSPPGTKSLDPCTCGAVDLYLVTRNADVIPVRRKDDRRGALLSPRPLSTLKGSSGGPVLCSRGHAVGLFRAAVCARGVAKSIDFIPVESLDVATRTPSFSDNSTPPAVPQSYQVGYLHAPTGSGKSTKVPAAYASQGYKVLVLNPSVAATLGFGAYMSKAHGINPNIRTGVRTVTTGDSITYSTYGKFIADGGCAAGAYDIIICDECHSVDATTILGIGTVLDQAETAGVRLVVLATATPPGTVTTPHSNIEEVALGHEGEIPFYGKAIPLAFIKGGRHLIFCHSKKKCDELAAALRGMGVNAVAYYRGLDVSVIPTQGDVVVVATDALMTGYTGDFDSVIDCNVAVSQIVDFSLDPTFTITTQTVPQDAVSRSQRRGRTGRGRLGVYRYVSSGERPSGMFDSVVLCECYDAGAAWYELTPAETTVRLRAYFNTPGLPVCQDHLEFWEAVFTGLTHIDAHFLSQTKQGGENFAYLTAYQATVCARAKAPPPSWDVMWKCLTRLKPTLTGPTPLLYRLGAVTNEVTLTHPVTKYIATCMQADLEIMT
The experiment in a line: In vitro HCV NS3 protease assay (fluorogenic depsipeptide), genotype 2b. The following applies: read-out: IC50 HCV-2b; HCV 2b NS3-NS4A protease. The assay is classed as biochemical, HCV genotype 2b. An excerpt:
The NS3-NS4 protease genes of HCV genotypes 2b and 3a were amplified from RNA isolated from clinical samples of HCV-infected patients obtained from Dr. G. Steinmann (Germany) using RT-PCR. The primers used for the RT-PCR were 5′[…]3′ (SEQ ID No. 6) as the forward and 5′[…]3′ (SEQ ID No.7) as the reverse primer for the NS3-NS4A of HCV genotype 2b and; 5′[…]3′ (SEQ ID No. 8) as the forward and 5′[…]3′ (SEQ ID No. 9) as the reverse primer for HCV genotype 3a. Each primer contained a unique restriction site for subcloning the fragment in the bacterial expression vector pET11a. The cloning into the vector generated a recombinant fusion protein containing an additional N-terminal 28 residues that comprised a hexahistidine tag and a rTEV protease cleavage site. The recombinant plasmids were used to transform the bacterial strain BL21 DE3 pLysS for protein expression and recombinant protein expression was induced by the addition of IPTG. Following expression, the cells were collected by centrifugation at 4° C. and the cell pellet lysed in a buffer containing 50 mM sodium phosphate, 0.5M NaCl, 40% glycerol, 1.5% NP-40, 0.5% Triton X-100 and the soluble protein fraction was passed through a 5ml HiTrap chelating affinity column as described above. A poly(U)-Sepharose purification step can optionally be conducted in order to remove degradation products and contaminants. […]
The fluorescence was monitored using the BMG POLARstar Galaxy 96-well plate reader with an excitation filter of 320 nm, and an emission filter of 405 nm. The level of inhibition (% inhibition) of each well containing test compound was calculated with the following equation (FU=fluorescence unit): [formula]
The calculated % inhibition values were then used to determine IC50, slope factor (n) and maximum inhibition (Imax) by the non-linear regression routine NLIN procedure of SAS using the following equation: [formula] […]

Assay [3] deals with T3, HCV genotype 1a NS3-NS4A protease (Hepatitis C virus genotype 1a, UniProt P27958).
T3 construct: Co-purification of mature NS3 and NS4A protein complex was verified by Western blot analysis; made in house; host or cells: Sf21 insect cells, recombinant baculovirus (pFastBac HTa)
T3 sequence (P27958 1027-1657): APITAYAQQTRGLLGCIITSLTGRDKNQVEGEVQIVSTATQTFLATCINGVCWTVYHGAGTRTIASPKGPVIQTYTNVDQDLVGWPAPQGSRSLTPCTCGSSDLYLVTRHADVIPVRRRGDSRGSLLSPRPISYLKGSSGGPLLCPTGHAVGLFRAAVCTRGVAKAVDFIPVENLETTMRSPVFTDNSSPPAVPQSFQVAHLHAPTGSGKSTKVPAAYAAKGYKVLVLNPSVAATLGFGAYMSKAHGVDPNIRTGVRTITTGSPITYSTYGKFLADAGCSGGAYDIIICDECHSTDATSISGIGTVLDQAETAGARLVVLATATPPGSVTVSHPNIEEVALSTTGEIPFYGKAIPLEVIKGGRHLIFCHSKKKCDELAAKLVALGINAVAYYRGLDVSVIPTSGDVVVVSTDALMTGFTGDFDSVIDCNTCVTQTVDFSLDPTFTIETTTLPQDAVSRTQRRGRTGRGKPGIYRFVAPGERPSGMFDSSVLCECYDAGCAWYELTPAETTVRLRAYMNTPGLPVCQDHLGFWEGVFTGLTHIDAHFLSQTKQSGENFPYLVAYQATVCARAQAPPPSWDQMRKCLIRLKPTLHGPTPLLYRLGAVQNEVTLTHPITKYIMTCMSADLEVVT
T3 sequence (P27958 1658-1711): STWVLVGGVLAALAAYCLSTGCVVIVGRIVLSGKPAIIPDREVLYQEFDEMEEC
The experiment in a line: Inhibition constant (Ki) determination and mode of inhibition, steady-state velocity, genotype 1a. The assay is classed as biochemical. Here is the method: The fluorogenic depsipeptide substrate anthranilyl-D(d)EIVP-Nva[C(O)—O] AMY(3-N2)TW—OH (SEQ ID No.13) was used to assess the mechanism of inhibition and the inhibition constants of the compound (IV) against HCV NS3-NS4A proteases. It was cleaved between the norvaline and the alanine residues. The substrate working solution was prepared in DMSO at the concentration of 200 μM from the substrate stock solution (2 mM in DMSO stored at —20° C.). The final substrate concentration in the assay varied from 0.25 to 8 μM. The inhibition constant (Ki) for compound (IV) was determined using a steady-state velocity method (Morrisson et al. 1985). The protease activity was determined by monitoring the fluorescence change associated with the cleavage of the internally quenched fluorogenic substrate using a SLM-AMINCO® 8100 spectrofluorometer ([…]). The cleavage reaction was monitored in the presence of 0.25 to 8 μM of substrate, 0.3 nM of HCV 1a or 1b NS3-NS4A heterodimer protein and various concentrations of the test compound IV in 50 mM Tris-HCl, pH 8.0, 0.25M sodium citrate, 0.01% n-dodecyl-β-D-maltoside, 1 mM TCEP. The steady-state analysis of inhibition of the HCV genotype 1a and 1b NS3-NS4A heterodimer proteases were performed using the Dixon and Cornish-Bowden graphical methods. […]

Assay [4] concerns the target T4, HCV genotype 2b NS3-NS4A protease (UniProt P26661).
T4 construct: fused on or other part: 28 extra N-terminal residues with a hexahistidine tag and an rTEV cleavage site
T4 sequence (P26661 1031-1661): T2 sequence (P26661 1031-1661)
As to the kind of experiment: Inhibition constant (Ki) determination, genotype 2b. The assay is classed as biochemical. To be noted: read-out: Ki HCV genotype 2b.

Setting [5] is: HCV 1a NS3-NS4A protease, read-out: IC50 HCV-1a.

The structures appear in SMILES notation. Read-outs that look alike come from different tables or passages of the source.

T1 sequence (P27958 1027-1657): as the sequence (P27958 1027-1657) above
T1 sequence (P27958 1658-1711): as the sequence (P27958 1658-1711) above

As for `COc1ccc2c(O[C@@H]3C[C@H]4C(=O)N[C@]5(C(=O)O)CC5/C=C\CCCCC[C@H](NC(=O)OC(C)(C)C)C(=O)N4C3)cc(-c3ccccc3)nc2c1` (stereo partly drawn) [II], the IC50 was found to be 7.8 nM in assay [1] (setting [5]) and 1000 nM in assay [2].

As to `COc1ccc2c(O[C@@H]3C[C@H]4C(=O)N[C@]5(C(=O)O)CC5/C=C\CCCCC[C@H](NC(=O)OC(C)(C)C)C(=O)N4C3)cc(-c3csc(NC(C)=O)n3)nc2c1` (stereo partly drawn) [III], the IC50 in assay [1] (setting [5]) turned out to be 4.1 nM; in assay [2], 510 nM.

`COc1ccc2c(O[C@@H]3C[C@H]4C(=O)N[C@]5(C(=O)O)CC5/C=C\CCCCC[C@H](NC(=O)OC5CCCC5)C(=O)N4C3)cc(-c3csc(NC(C)C)n3)nc2c1` (stereo partly drawn) [IV]: the IC50 was found to be 4.3 nM in assay [1] and 260 nM in assay [2]. In addition, the Ki in assay [3] was 0.3 nM; in assay [4], 83 nM. The “mode of inhibition, HCV genotype 1a NS3-NS4A protease” value in assay [3] (Dixon and Cornish-Bowden plots, GraFit) is given as “competitive”.

What is called IC50 is the point on the concentration scale where inhibition reaches its midpoint. By Ki is commonly meant the equilibrium dissociation constant of an inhibitor or competing ligand from its target.

Values taken from patent US20050159345A1 (Boehringer Ingelheim International GmbH, priority 2002, published 2005).
